The target in experiment [1] is interaction between PD-1 and PD-L1 (Homo sapiens (Human), UniProt Q9NZQ7). The experiment can be described thus: PD1-PDL1 HTRF binding activity test (Cisbio PD-1/PD-L1 binding assay kit). The procedure:
I. PD1-PDL1 HTRF Binding Activity Test
The effect of compounds of the examples of the present invention on the interaction between PD-1 and PD-L1 was determined by the PD-1/PD-L1 binding assay kit from Cisbio (#64ICP01PEG or 64ICP01PEH). The detailed experimental process was as follows: • 1. Pre-diluted compound solution, 4 μL of Tag1-PD-L1 and 4 μL of Tag2-PD1 were added to each well of a 384-well plate; • 2. After the mixture was incubated at room temperature for 15 min, 5 μL of anti-Tag1-Eu3+ antibody and 5 μL of anti-Tag2-XL665 antibody were then added; • 3. After incubated for 2 hrs at room temperature or overnight at 4° C., plates were read on Envision of Pelkin Elmer; and readings at 665 nm and 620 nm were recorded, and the ratio of the two readings was taken as a reading for each well; • 4. The reading of each well after compound treatment was compared with the reading of DMSO treated wells to obtain the percent inhibition of the compound; • 5. IC50 values of compounds and positive compounds of the examples of the present invention were determined by non-linear regression analysis of percent inhibition at different compound concentrations. II. Jurkat Reporter Gene Cellular Assay
On the technique in general: TR-FRET usually uses a lanthanide donor and a delayed reading to cut background.

The nature of experiment [2]: Jurkat reporter gene cellular assay. It counts as cell-based. The following applies: Homo sapiens; Jurkat/NF-κB-luc/PD1 + Raji-PD-L1 coculture, OKT3 1 μg/mL, 6 hrs, activation fold; read-out: Cell Activity EC50. The procedure:
The effect of compounds of the examples of the present invention and positive compounds on the interaction between PD-1 and PD-L1 expressed on cell surfaces, and the related influence on T cell functions, were determined by a Jurkat reporter gene cellular assay.
Briefly, the reporter gene plasmid of NF-κB-luc and the plasmid of human PD-1 were transfected into Jurkat cells to establish a stably transfected cell line capable of stably expressing both PD-1 and NF-κB-Luc reporter genes; the expression level of PD-1 on the cell surface was confirmed by flow cytometry; and the expression of the reporter gene was confirmed via the response of the reporter gene stimulated by OKT-3 and Raiji cells.
In addition, the plasmid of human PD-L1 was transfected into Raji cells to obtain a cell line capable of stably expressing PD-L1. Jurkat/NF-κB-luc/PD1 cells and Raji-PD-L1 cells were then cocultured and stimulated with OKT-3. On this basis, the compounds were added, and the enhancement of the signal pathway of T cell activation by the inhibitory effect of the compounds on the interaction between PD-1 and PD-L1 was evaluated by readings of reporter gene responses. The specific experimental process was as follows: • 1. 30 μL of compound or antibody solution was added to each well of a white 96-well plate (corning, 3610) at different diluted concentrations, and 10 μL of OKT3 (Biolegend, 317326) was then added (the final concentration of OKT3: 1 μg/mL); • 2. 20 μL of Raji-PD-L1 cell suspension was added to each well with 5*10^4 cells for each well, and was incubated in an incubator for 20 min; • 3. 20 μL of Jurkat/NF-Kb-luc/PD-1 cell suspension was added to each well with 5*10^4 cells for each well, and well mixed, and 6 hrs later, Bright-glo (Promega, E2620) was applied and plates were read on Envision; • 4. The reading of each well treated with the compound was compared with the reading of each well treated with DMSO to obtain the activation fold of the compound; • 5. EC50 values of compounds and positive compounds of the examples of the present invention were determined by non-linear regression analysis of activation folds at different compound concentrations.

Sequence of interaction between PD-1 and PD-L1 (Q9NZQ7 19-238): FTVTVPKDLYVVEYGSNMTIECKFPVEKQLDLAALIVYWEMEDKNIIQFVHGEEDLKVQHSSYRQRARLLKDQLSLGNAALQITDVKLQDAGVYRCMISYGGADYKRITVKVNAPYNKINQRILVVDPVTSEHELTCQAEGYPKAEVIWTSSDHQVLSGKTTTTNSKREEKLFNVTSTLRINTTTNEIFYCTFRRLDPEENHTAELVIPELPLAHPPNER

In general, IC50 refers to the concentration that inhibits the measured activity by half. Read a low IC50 as inhibition by little substance. A word on the EC50: it is the concentration giving half of the maximal effect. In turn, `C[C@@H](O)CN1CCc2c(nc(/C(F)=C/c3cccc(-c4cccc(NC(=O)c5nc6c(n5C)CCN(CCC57CCC(C(=O)O)(CC5)C7)C6)c4Cl)c3Cl)n2C)C1` [Example 7, (R,Z)-4-(2-(2-((2,2′-dichloro-3′-(2-fluoro-2-(5-(2-hydroxypropyl)-1-methyl-4,5,6,7-tetrahydro-1H-imidazo[4,5-c]pyridin-2-yl)vinyl)-[1,1′-biphenyl]-3-yl)carbamoyl)-1-methyl-1,4,6,7-tetrahydro-5H-imidazo[4,5-c]pyridin-5-yl)ethyl)bicyclo[2.2.1]heptane-1-carboxylic acid] registered an IC50 in experiment [1] of 0.419 nM. The EC50 in experiment [2] was 62.2 nM.
The like results for `CC(C)N1CCc2c(nc(/C(F)=C/c3cccc(-c4cccc(NC(=O)c5nc6c(n5C)CCN(CCC57CCC(C(=O)O)(CC5)C7)C6)c4Cl)c3Cl)n2C)C1` [Example 8, (Z)-4-(2-(2-((2,2′-dichloro-3′-(2-fluoro-2-(5-isopropyl-1-methyl-4,5,6,7-tetrahydro-1H-imidazo[4,5-c]pyridin-2-yl)vinyl)-[1,1′-biphenyl]-3-yl)carbamoyl)-1-methyl-1,4,6,7-tetrahydro-5H-imidazo[4,5-c]pyridin-5-yl)ethyl)bicyclo[2.2.1]heptane-1-carboxylic acid] were, in that order, 0.516 nM and 97.5 nM.
The like results for `COc1cc(/C(F)=C/c2cccc(-c3cccc(NC(=O)c4nc5c(n4C)CCN(CCC46CCC(C(=O)O)(CC4)C6)C5)c3Cl)c2Cl)ncc1CNCCO` [Example 16, (Z)-4-(2-(2-((2,2′-dichloro-3′-(2-fluoro-2-(5-(((2-hydroxyethyl)amino)methyl)-4-methoxypyridin-2-yl)vinyl)-[1,1′-biphenyl]-3-yl)carbamoyl)-1-methyl-1,4,6,7-tetrahydro-5H-imidazo[4,5-c]pyridin-5-yl)ethyl)bicyclo[2.2.1]heptane-1-carboxylic acid] were, in that order, 0.191 nM and 133 nM.
Regarding `COc1cc(/C(F)=C/c2cccc(-c3cccc(NC(=O)c4nc5c(n4C)CCN(CCC46CCC(C(=O)O)(CC4)C6)C5)c3Cl)c2Cl)ncc1CN1Cc2cccnc2C1` [Example 68, (Z)-4-(2-(2-((2,2′-dichloro-3′-(2-(5-((5,7-dihydro-6H-pyrrolo[3,4-b]pyridin-6-yl)methyl)-4-methoxypyridin-2-yl)-2-fluorovinyl)-[1,1′-biphenyl]-3-yl)carbamoyl)-1-methyl-1,4,6,7-tetrahydro-5H-imidazo [4,5-c]pyridin-5-yl)ethyl)bicyclo[2.2.1]heptane-1-carboxylic acid], the EC50 in experiment [2] came to 954 nM.
Same read-out and setting: in the case of `COc1cc(/C(F)=C/c2cccc(-c3cccc(NC(=O)c4nc5c(n4C)CCN(CCC46CCC(C(=O)O)(CC4)C6)C5)c3Cl)c2Cl)ncc1CN1CCO[C@@H](CO)C1` [Example 69, (R,Z)-4-(2-(2-((2,2′-dichloro-3′-(2-fluoro-2-(5-((2-(hydroxymethyl)morpholino)methyl)-4-methoxypyridin-2-yl)vinyl)-[1,1′-biphenyl]-3-yl)carbamoyl)-1-methyl-1,4,6,7-tetrahydro-5H-imidazo[4,5-c]pyridin-5-yl)ethyl)bicyclo[2.2.1]heptane-1-carboxylic acid] it was 116 nM; in that of `COc1cc(/C(F)=C/c2cccc(-c3cccc(NC(=O)c4nc5c(n4C)CCN(CCC46CCC(C(=O)O)(CC4)C6)C5)c3Cl)c2Cl)ncc1CN1CCO[C@H](CO)C1` [Example 70, (S,Z)-4-(2-(2-((2,2′-dichloro-3′-(2-fluoro-2-(5-((2-(hydroxymethyl)morpholino)methyl)-4-methoxypyridin-2-yl)vinyl)-[1,1′-biphenyl]-3-yl)carbamoyl)-1-methyl-1,4,6,7-tetrahydro-5H-imidazo[4,5-c]pyridin-5-yl)ethyl)bicyclo[2.2.1]heptane-1-carboxylic acid], 128 nM.
On the same count and under the same terms, in the case of `COc1cc(/C(F)=C/c2cccc(-c3cccc(NC(=O)c4nc5c(n4C)CCN(CCC46CCC(C(=O)O)(CC4)C6)C5)c3Cl)c2Cl)ncc1CN1CC[C@@](C)(O)C1` [Example 71, (R,Z)-4-(2-(2-((2,2′-dichloro-3′-(2-fluoro-2-(5-((3-hydroxy-3-methylpyrrolidin-1-yl)methyl)-4-methoxypyridin-2-yl)vinyl)-[1,1′-biphenyl]-3-yl)carbamoyl)-1-methyl-1,4,6,7-tetrahydro-5H-imidazo[4,5-c]pyiidin-5-yl)ethyl)bicyclo[2.2.1]heptane-1-carboxylic acid] it was 42.1 nM.
As to `COc1cc(/C(F)=C/c2cccc(-c3cccc(NC(=O)c4nc5c(n4C)CCN(CCC46CCC(C(=O)O)(CC4)C6)C5)c3Cl)c2Cl)ncc1CN1CC[C@](C)(O)C1` [Example 72, (S,Z)-4-(2-(2-((2,2′-dichloro-3′-(2-fluoro-2-(5-((3-hydroxy-3-methylyrrolidin-1-yl)methyl)-4-methoxypyridin-2-yl)vinyl)-[1,1′-biphenyl]-3-yl)carbamoyl)-1-methyl-1,4,6,7-tetrahydro-5H-imidazo[4,5-c]pyridin-5-yl)ethyl)bicyclo[2.2.1]heptane-1-carboxylic acid], the EC50 in experiment [2] is 116 nM.
The same measure, in the same setting: in the case of `COc1cc(/C(F)=C/c2cccc(-c3cccc(NC(=O)c4nc5c(n4C)CCN(CCC46CCC(C(=O)O)(CC4)C6)C5)c3Cl)c2Cl)ncc1CN1CC[C@H](C(=O)O)C1` [Example 74, (S,Z)-1-((6-(2-(3′-(5-(2-(4-carboxybicyclo[2.2.1]heptan-1-yl)ethyl)-1-methyl-4,5,6,7-tetrahydro-1H-imidazo[4,5-c]pyridine-2-carboxamido)-2,2′-dichloro-[1,1′-biphenyl]-3-yl)-1-fluorovinyl)-4-methoxypyridin-3-yl)methyl)pyrrolidine-3-carboxylic acid] it was 136 nM; in that of `COc1cc(/C(F)=C/c2cccc(-c3cccc(NC(=O)c4nc5c(n4C)CCN(CCC46CCC(C(=O)O)(CC4)C6)C5)c3Cl)c2Cl)ncc1CN1CC[C@](C)(C(=O)O)C1` [Example 76, (S,Z)-1-((6-(2-(3′-(5-(2-(4-carboxybicyclo[2.2.1]heptan-1-yl)ethyl)-1-methyl-4,5,6,7-tetrahydro-1H-imidazo[4,5-c]pyridine-2-carboxamido)-2,2′-dichloro-[1,1′-biphenyl]-3-yl)-1-fluorovinyl)-4-methoxypyridin-3-yl)methyl)-3-methylpyrrolidine-3-carboxylic acid], 98.1 nM.
Still for that read-out and setting: in the case of `COc1cc(/C(F)=C/c2cccc(-c3cccc(NC(=O)c4nc5c(n4C)CCN(CCC46CCC(C(=O)O)(CC4)C6)C5)c3Cl)c2Cl)ncc1CN1CC2CCC1C2` (stereo not drawn) [Example 77, (Z)-4-(2-(2-((3′-(2-(5-((2-azabicyclo[2.2.1]heptan-2-yl)methyl)-4-methoxypyridin-2-yl)-2-fluorovinyl)-2,2′-dichloro-[1,1′-biphenyl]-3-yl)carbamoyl)-1-methyl-1,4,6,7-tetrahydro-5H-imidazo[4,5-c]pyridin-5-yl)ethyl)bicyclo[2.2.1]heptane-1-carboxylic acid] it was 54.4 nM; in that of `COc1cc(/C(F)=C/c2cccc(-c3cccc(NC(=O)c4nc5c(n4C)CCN(CCC46CCC(C(=O)O)(CC4)C6)C5)c3Cl)c2Cl)ncc1CN1CC[C@H](C)C1` [Example 78, (S,Z)-4-(2-(2-((2,2′-dichloro-3′-(2-fluoro-2-(4-methoxy-5-((3-methylpyrrolidin-1-yl)methyl)pyridin-2-yl)vinyl)-[1,1′-biphenyl]-3-yl)carbamoyl)-1-methyl-1,4,6,7-tetrahydro-5H-imidazo[4,5-c]pyridin-5-yl)ethyl)bicyclo[2.2.1]heptane-1-carboxylie acid], 56.5 nM.
